Measured values reported in ChEMBL document CHEMBL4334438, “Discovery of novel glycogen synthase kinase-3α inhibitors: Structure-based virtual screening, preliminary SAR and biological evaluation for treatment of acute myeloid leukemia” (Eur J Med Chem, 2019).
The source made the active and inactive calls. The rule behind the calls is not given here.

What was measured:
Homo sapiens = organism: Homo sapiens; assay: Inhibition of recombinant full length human Aurora A I31F mutant assessed as residual activity at 1 uM using LRRASLG as substrate incubated for 40 mins in presence of [gamma-33ATP] by scintillation counting based radiometry assay relative to control
[1] = tested on: PI3-kinase p110-alpha/p85-alpha (Homo sapiens), P27986+P42336 [E545K]; assay: Inhibition of recombinant full-length human PI3K p110alpha E545K mutant/p85alpha assessed as residual activity at 1 uM assessed as residual activity at 1 uM using phosphatidylinositol-4, 5-bisphosphate as substrate incubated for 40 mins in presence of [gamma33P]ATP by scintillation counting based radiometry assay relative to control; format: protein-complex assay
[2] = tested on: Tyrosine-protein kinase Blk (Homo sapiens), P51451 [UNDEFINED MUTATION]; assay: Inhibition of recombinant full length human BLK M287V mutant assessed as residual activity at 1 uM using poly(Glu, Tyr) 4:1 as substrate incubated for 40 mins in presence of [gamma-33ATP] by scintillation counting based radiometry assay relative to control
[3] = target: PAS domain-containing serine/threonine-protein kinase (Homo sapiens) (UniProt Q96RG2); assay: Inhibition of recombinant human PASK (995 to end residues) assessed as residual activity at 1 uM using KKLNRTLSFAEPG as substrate measured after 40 mins in presence of [gamma33P]ATP by scintillation counting method relative to control
[4] = target: Homeodomain-interacting protein kinase 3 (Homo sapiens) (UniProt Q9H422); assay: Inhibition of human HIPK3 (161 to 562 residues) assessed as residual activity at 1 uM using myelin basic protein as substrate after 40 mins by [gamma-33ATP] radiometric assay relative to control
[5] = target: Serine/threonine-protein kinase Nek7 (Homo sapiens) (UniProt Q8TDX7); assay: Inhibition of recombinant human NEK7 (2 to end residues) assessed as residual activity at 1 uM using FLAKSFGSPNRAYKK as substrate measured after 40 mins in presence of [gamma33P]ATP by scintillation counting method relative to control
[6] = target: Tyrosine-protein kinase Lyn (Homo sapiens) (UniProt P07948); assay: Inhibition of recombinant human Lyn assessed as residual activity at 1 uM using poly(Glu, Tyr) 4:1 as substrate after 40 mins in presence of [gamma-33ATP] by scintillation counting based radiometry assay relative to control
[7] = target: Aurora kinase B (Homo sapiens) (UniProt Q96GD4); assay: Inhibition of recombinant full length human Aurora B assessed as residual activity at 1 uM using AKRRRLSSLRA as substrate incubated for 40 mins in presence of [gamma-33ATP] by scintillation counting based radiometry assay relative to control
[8] = target: Cyclin-dependent kinase 1/cyclin B1 (Homo sapiens) (UniProt P06493+P14635); assay: Inhibition of recombinant full length human CDK1/CyclinB assessed as residual activity at 1 uM using Histone H1 as substrate incubated for 40 mins in presence of [gamma-33ATP] by scintillation counting based radiometry assay relative to control; format: protein-complex assay
[9] = target: Receptor tyrosine-protein kinase erbB-4 (Homo sapiens) (UniProt Q15303); assay: Inhibition of recombinant human ERBB4 (706 to 991 residues) assessed as residual activity at 1 uM using poly(Glu, Tyr) 4:1 as substrate at 40 mins in presence of [gamma-33ATP] by scintillation counting based radiometry assay relative to control
[10] = target: Inhibitor of nuclear factor kappa-B kinase subunit beta (Homo sapiens) (UniProt O14920); assay: Inhibition of full length human IKKbeta assessed as residual activity at 1 uM using peptide as substrate after 40 mins by [gamma-33ATP] radiometric assay relative to control
[11] = target: Mitogen-activated protein kinase kinase kinase 20 (Homo sapiens) (UniProt Q9NYL2); assay: Inhibition of recombinant full-length human ZAK at 1 uM assessed as residual activity at 1 uM using MBP as substrate measured after 40 mins in presence of [gamma33P]ATP by scintillation counting method relative to control
[12] = target: Insulin receptor (Homo sapiens) (UniProt P06213); assay: Inhibition of human IR (1005 to 1310 residues) assessed as residual activity at 1 uM using KKSRGDYMTMQIG as substrate after 40 mins by [gamma-33ATP] radiometric assay relative to control
[13] = target: Transient receptor potential cation channel subfamily M member 7 (Homo sapiens) (UniProt Q96QT4); assay: Inhibition of recombinant human CHAK1 (1180 to end residues) assessed as residual activity at 1 uM using myelin basic protein as substrate incubated for 40 mins in presence of [gamma-33ATP] by scintillation counting based radiometry assay relative to control
[14] = target: Protein kinase C iota type (Homo sapiens) (UniProt P41743); assay: Inhibition of recombinant full-length human PKCiota assessed as residual activity at 1 uM using ERMRPRKRQGSVRRRV as substrate incubated for 40 mins in presence of [gamma33P]ATP by scintillation counting based radiometry assay relative to control
[15] = target: Protein kinase C epsilon type (Homo sapiens) (UniProt Q02156); assay: Inhibition of recombinant human PKCepsilon (2 to end residues) assessed as residual activity at 1 uM using ERMRPRKRQGSVRRRV as substrate measured after 40 mins in presence of [gamma33P]ATP by scintillation counting method relative to control
[16] = tested on: Hepatocyte growth factor receptor (Homo sapiens), P08581 [Y1230D]; assay: Inhibition of recombinant human MET A1209G/V1290L/Y1248D mutant (974 to end residues) assessed as residual activity at 1 uM using KKKGQEEEYVFIE as substrate incubated for 40 mins in presence of [gamma-33ATP by scintillation counting based radiometry assay relative to control
NB-4 [17] = assay: Induction of cell differentiation in human NB4 cells assessed as increase in CD11b-APC-Cy7 positive cells after 6 days by flow cytometry analysis; format: functional, cell-based
HL-60 [18] = assay: Induction of cell differentiation in human HL60 cells assessed as increase in CD11b-APC-Cy7 positive cells after 6 days by flow cytometry analysis; format: functional, cell-based
[19] = target: Serine/threonine-protein kinase WNK4 (Homo sapiens) (UniProt Q96J92); assay: Inhibition of human WNK4 assessed as residual activity at 1 uM using myelin basic protein as substrate measured after 120 mins in presence of [gamma33P]ATP by scintillation counting method relative to control
HL-60 [20] = assay: Antiproliferative activity against human HL60 cells assessed as reduction in viability after 3 days by SRB assay; format: functional, cell-based
[21] = Activation of wnt/beta-catenin signalling pathway in human HL60 cells assessed as stabilization of beta-catenin at 1 to 30 uM after 24 hrs by Western blot analysis; format: cell-based
[22] = target: Casein kinase I isoform alpha (Homo sapiens) (UniProt P48729); assay: Inhibition of recombinant human CK1alpha expressed in Escherichia coli assessed as residual activity at 1 uMu sing CK1 peptide as substrate preincubated for 15 mins followed by substrate addition and measured after 30 mins in presence of [gamma-33ATP] by scintillation counting method relative to control; conditions: 1 uM
NB-4 [23] = assay: Antiproliferative activity against human NB4 cells assessed as reduction in viability after 3 days by SRB assay; format: functional, cell-based
NB-4 [24] = assay: Induction of monocytic differentiation in human NB4 cells assessed as increase in CD11b-APC-Cy7 positive cells at 30 uM after 6 days by flow cytometry analysis; format: functional, cell-based

Chain of Transient receptor potential cation channel subfamily M member 7 (Homo sapiens) (Q96QT4 whole entry): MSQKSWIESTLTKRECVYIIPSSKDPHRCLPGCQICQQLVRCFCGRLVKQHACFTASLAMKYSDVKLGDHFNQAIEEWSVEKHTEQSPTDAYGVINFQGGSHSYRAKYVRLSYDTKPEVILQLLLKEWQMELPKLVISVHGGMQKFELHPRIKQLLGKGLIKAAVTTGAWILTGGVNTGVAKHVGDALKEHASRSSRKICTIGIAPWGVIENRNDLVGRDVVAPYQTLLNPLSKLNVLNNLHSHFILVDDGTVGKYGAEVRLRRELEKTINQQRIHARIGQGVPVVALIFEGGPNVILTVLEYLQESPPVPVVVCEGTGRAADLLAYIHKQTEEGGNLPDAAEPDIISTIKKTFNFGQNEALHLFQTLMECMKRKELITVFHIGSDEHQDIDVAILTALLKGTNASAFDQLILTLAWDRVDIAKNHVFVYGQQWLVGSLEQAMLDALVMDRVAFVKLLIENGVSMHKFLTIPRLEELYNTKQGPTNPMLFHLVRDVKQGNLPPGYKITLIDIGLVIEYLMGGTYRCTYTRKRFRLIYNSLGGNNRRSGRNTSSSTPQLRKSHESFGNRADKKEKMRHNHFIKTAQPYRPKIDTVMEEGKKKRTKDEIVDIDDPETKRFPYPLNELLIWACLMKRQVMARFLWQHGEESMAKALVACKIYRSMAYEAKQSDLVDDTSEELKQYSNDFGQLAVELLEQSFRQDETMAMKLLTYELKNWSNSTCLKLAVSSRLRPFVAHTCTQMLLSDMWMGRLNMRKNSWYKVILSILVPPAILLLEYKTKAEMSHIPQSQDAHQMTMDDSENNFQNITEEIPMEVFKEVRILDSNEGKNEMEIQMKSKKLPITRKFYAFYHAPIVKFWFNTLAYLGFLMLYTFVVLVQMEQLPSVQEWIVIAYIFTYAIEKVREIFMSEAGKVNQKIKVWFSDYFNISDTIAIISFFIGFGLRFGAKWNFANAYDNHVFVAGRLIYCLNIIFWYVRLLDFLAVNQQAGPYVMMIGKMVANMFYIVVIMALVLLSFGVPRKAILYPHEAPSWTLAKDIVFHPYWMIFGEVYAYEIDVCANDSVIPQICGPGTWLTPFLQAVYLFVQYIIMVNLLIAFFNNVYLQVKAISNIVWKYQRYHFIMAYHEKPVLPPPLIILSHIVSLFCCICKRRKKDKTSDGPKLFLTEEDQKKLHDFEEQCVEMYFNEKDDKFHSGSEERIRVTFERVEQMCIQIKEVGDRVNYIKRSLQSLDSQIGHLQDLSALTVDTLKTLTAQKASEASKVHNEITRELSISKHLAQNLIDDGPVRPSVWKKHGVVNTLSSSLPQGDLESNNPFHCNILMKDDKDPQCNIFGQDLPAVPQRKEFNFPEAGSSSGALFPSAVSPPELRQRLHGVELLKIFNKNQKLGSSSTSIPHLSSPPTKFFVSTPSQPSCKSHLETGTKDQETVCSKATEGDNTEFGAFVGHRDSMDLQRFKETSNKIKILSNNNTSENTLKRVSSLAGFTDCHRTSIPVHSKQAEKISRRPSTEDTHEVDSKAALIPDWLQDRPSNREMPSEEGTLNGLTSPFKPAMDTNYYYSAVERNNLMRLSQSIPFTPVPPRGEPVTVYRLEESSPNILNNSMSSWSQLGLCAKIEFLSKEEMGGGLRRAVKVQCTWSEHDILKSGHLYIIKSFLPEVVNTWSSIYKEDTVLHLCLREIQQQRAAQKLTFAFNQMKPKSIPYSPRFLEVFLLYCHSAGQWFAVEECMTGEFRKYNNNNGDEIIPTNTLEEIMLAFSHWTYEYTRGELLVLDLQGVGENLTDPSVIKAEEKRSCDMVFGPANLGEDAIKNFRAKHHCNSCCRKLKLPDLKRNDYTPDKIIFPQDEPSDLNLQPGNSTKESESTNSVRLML
Chain of Inhibitor of nuclear factor kappa-B kinase subunit beta (Homo sapiens) (O14920 whole entry): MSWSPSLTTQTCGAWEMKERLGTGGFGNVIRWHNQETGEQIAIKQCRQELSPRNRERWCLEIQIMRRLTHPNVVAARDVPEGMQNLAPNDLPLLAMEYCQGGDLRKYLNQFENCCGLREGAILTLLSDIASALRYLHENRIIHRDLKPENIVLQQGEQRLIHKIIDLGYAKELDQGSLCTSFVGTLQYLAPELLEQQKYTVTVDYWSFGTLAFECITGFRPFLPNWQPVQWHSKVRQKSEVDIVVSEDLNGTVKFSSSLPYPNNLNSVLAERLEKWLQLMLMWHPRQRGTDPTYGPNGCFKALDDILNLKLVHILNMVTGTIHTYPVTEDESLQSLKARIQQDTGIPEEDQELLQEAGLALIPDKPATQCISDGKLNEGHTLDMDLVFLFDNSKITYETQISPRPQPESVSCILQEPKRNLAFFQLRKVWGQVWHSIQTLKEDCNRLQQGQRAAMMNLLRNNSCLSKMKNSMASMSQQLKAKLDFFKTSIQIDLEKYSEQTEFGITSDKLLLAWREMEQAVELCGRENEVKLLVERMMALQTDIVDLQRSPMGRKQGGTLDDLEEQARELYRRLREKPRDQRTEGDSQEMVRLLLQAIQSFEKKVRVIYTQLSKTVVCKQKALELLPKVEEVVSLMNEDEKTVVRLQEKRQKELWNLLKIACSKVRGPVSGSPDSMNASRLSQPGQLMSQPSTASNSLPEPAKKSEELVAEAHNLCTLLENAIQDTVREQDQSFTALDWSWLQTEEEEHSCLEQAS
Chain of Mitogen-activated protein kinase kinase kinase 20 (Homo sapiens) (Q9NYL2 2-800 limits assumed): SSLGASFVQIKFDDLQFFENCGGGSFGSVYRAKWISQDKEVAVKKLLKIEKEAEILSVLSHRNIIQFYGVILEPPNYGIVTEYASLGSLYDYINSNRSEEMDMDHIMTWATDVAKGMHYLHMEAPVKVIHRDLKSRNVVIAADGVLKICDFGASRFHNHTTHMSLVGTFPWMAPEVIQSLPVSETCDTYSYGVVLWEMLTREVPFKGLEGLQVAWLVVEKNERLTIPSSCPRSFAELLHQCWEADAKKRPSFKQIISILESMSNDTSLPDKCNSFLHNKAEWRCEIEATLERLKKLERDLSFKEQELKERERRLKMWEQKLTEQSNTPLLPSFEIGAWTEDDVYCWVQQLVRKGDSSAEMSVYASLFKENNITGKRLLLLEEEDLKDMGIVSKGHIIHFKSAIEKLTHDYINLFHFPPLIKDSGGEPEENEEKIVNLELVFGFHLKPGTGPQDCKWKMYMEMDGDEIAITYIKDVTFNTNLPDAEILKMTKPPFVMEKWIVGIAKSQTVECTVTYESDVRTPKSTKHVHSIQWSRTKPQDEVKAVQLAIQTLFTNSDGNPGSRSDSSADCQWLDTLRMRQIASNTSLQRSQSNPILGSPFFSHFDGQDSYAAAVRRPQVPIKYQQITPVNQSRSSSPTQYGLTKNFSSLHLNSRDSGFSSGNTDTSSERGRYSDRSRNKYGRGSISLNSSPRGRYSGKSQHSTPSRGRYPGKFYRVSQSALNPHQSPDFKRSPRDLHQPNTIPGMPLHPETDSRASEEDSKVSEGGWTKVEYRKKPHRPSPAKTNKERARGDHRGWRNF
Chain of Tyrosine-protein kinase Blk (Homo sapiens), P51451 [UNDEFINED MUTATION] (P51451 whole entry, looked up, stated change not applied, the tested form may be a part): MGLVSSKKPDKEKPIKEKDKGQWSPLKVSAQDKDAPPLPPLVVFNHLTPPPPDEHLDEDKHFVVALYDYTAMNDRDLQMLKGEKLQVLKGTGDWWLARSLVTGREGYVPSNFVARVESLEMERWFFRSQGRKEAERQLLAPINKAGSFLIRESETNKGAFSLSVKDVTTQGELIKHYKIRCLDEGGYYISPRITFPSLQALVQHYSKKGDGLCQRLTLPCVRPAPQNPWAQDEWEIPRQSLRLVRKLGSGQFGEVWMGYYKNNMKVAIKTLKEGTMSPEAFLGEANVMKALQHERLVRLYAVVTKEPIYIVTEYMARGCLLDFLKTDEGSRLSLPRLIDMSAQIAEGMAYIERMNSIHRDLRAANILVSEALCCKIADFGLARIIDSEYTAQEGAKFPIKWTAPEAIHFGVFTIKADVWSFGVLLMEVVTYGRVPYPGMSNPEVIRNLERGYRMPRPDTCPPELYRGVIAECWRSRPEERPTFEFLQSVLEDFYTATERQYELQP
Chain of Aurora kinase B (Homo sapiens) (Q96GD4 whole entry): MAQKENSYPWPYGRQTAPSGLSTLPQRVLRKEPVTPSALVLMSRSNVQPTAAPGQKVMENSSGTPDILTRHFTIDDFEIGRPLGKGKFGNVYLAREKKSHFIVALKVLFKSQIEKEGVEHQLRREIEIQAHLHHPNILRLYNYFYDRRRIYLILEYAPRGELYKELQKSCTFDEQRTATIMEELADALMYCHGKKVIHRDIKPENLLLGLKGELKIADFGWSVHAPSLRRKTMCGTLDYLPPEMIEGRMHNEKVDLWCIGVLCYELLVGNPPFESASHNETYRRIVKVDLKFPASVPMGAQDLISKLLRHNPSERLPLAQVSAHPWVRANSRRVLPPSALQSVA
Chain of Protein kinase C epsilon type (Homo sapiens) (Q02156 whole entry): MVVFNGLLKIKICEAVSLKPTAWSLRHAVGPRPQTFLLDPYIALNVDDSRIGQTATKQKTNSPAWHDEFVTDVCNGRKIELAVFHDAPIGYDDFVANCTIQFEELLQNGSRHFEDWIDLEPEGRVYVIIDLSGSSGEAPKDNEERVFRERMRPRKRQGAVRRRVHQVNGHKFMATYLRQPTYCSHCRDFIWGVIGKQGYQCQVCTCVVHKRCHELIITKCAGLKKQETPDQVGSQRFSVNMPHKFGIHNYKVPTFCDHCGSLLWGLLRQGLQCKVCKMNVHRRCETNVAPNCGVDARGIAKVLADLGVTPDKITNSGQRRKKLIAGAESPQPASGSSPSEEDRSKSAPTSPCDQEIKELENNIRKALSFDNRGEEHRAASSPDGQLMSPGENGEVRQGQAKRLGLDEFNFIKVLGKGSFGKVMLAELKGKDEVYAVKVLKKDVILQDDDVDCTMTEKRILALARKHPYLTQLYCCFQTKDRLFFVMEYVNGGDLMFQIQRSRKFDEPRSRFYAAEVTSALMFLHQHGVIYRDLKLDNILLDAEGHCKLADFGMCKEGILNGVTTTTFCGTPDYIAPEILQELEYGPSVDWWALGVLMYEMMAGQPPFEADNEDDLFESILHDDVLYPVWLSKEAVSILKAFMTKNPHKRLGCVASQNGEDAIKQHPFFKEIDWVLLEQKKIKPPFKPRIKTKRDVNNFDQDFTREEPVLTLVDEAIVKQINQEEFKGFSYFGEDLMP

Row | Structure (SMILES) | Activity (Homo sapiens) [%] | Activity [1] [%] | Activity [2] [%] | Activity [3] [%] | Activity [4] [%] | Activity [5] [%] | Activity [6] [%] | Activity [7] [%] | Activity [8] [%] | Activity [9] [%] | Activity [10] [%] | Activity [11] [%] | Activity [12] [%] | Activity [13] [%] | Activity [14] [%] | Activity [15] [%] | Activity [16] [%] | also measured
1 | N=C1NC(=O)/C(=C\c2ccc(-c3cccc([N+](=O)[O-])c3)o2)S1 | 101 | 100 | 107 | 92 | 2 | 107 | 83 | 94 | 73 | 99 | 62 | 114 | 97 | 104 | 102 | 106 | 92 | –
2 | C=CCOC(=O)c1cc(-c2ccc(/C=C3/NC(=S)NC3=O)o2)ccc1Cl | 114 | 92 | 93 | 97 | 7 | 98 | 92 | 110 | 65 | 90 | 129 | 115 | 108 | 99 | 105 | 99 | 105 | Activity (NB-4 [17]): Dose-dependent effect; Activity (HL-60 [18]): Dose-dependent effect; Activity [19]: 93%; Activity (HL-60 [20]): Dose-dependent effect; Activity [21]: Not Active; Activity [22]: 96%; Activity (NB-4 [23]): Dose-dependent effect; Activity (NB-4 [24]): Active
